# Key:
# [1] = tested on: NGF mRNA; test: Northern/slot blot of neurotrophin mRNA from astrocytes: NGF; type: cell-based, NIH Swiss mice; parameters: key to NGF mRNA: The conditions which produced a detectable amount of each of the neurotrophin mRNAs are indicated by a “+”; a “++” indicating that at least twice the detectable amount was present; Those blots which were negative are indicated by a “−”; details: NGF 40 ng/ml, 24 hours
# Protocol: (§1) Induction of neurotrophin mRNA was determined by northern blot analysis of astrocytes cultured with AIT-082, NGF, or both. The cells were harvested and RNA extracted at 24 hours after treatment.
# (§2) More particularly, astrocytes from the cerebral cortex of NIH Swiss mice (Harlan) were isolated. Briefly, newborn pups (0-24 hours) were decapitated. Their brains were removed under aseptic conditions and were placed in modified Dulbecco's medium (DMEM) containing 20% heat-inactivated horse serum (Hyclone) (“complete medium”). The neopallium was then dissected from each cerebral hemisphere and minced into 1 mm cubes.
# (§3) The astrocytes were then isolated by mechanical dissociation. The cubes were vortexed at maximum speed for one minute. The cell suspension was then passed first through 75 mm Nitex then through 10 mm Nitex. The resulting cell suspension was diluted in complete medium to a final concentration of one brain per 10 ml of complete medium. Ten milliliters of the diluted cell suspension was added to each 100 mm Falcon tissue culture plate (Fisher). After 3 days the medium was replaced with 10 ml fresh complete medium and subsequently was replaced twice weekly with DMEM containing 10% heat inactivated horse serum (“growth medium”). After two weeks in culture the astrocytes formed a confluent monolayer.
# (§4) For RNA extraction, astrocytes were trypsinized. The astrocytes were then replated onto 100 mm PORN coated plates at a cell density of 10^6 cells per plate (10 ml growth medium). After 2 hrs PBS, guanosine (Guo), or GTP at 10 mM were added to the appropriate plates. Total RNA was harvested from 1.5×10^7 cells for each treatment, 4 and 24 hrs after treatment using TRIzol reagent and supplier protocol (GIBCO BRL/Life Technologies, Inc.). For slot blots, total RNA was bound to Hybond-N filters (Amersham/United States Biochemicals) as described in Transfer and Immobilization of Nucleic Acids and Proteins to S & S Solid Supports (S and S Protocols: Schleicher & Schuell, New Hampshire, USA). Northern blots were also performed using […] total RNA from each sample. These were electrophoresed in 1% agarose gels containing formaldehyde and blotted onto Hybond-N filters according to S and S protocols.
# (§5) The blots were probed with ^32P-labeled cDNA (NGF, NT-3 and BDNF probes) or oligonucleotide probe (FGF-2) by hybridization in Piperazine-N,N′-bis-(2-ethanesulfonic acid) (PIPES) buffer (50 mM PIPES, pH 6.8; 50 mM NaH2PO4; 0.1 M NaCl; 5% SDS and 1 mM EDTA) overnight at 50° C. […] Various concentrations ([…] of total RNA), as determined by spectrophotometry, of each sample were blotted and probed so that quantification could be done after insuring a linear film response. Quantification was performed using MCID Image Analysis (St. Catherine's, Ontario, Canada). […]
# [2] = tested on: FGF-2 mRNA; test: Northern/slot blot of neurotrophin mRNA from astrocytes: FGF-2; type: cell-based, NIH Swiss mice; parameters: key to FGF-2 mRNA: The conditions which produced a detectable amount of each of the neurotrophin mRNAs are indicated by a “+”; a “++” indicating that at least twice the detectable amount was present; Those blots which were negative are indicated by a “−”; details: NGF 40 ng/ml, 24 hours
# Protocol: as §1, §2, §3, §4, §5
# [3] = tested on: basal forebrain cholinergic neurons; details: mouse NGF 25 μg/ml, Barnett et al.; cited from earlier work
# [4] = tested on: NT-3 mRNA; test: Northern blot of neurotrophin mRNA from astrocytes: NT-3; type: cell-based, NIH Swiss mice; parameters: key: The conditions which produced a detectable amount of each of the neurotrophin mRNAs are indicated by a “+”; a “++” indicating that at least twice the detectable amount was present; Those blots which were negative are indicated by a “−”; details: NGF 40 ng/ml, 24 hours
# Protocol: as §1, §2, §3
# (§6) For RNA extraction, astrocytes were trypsinized. The astrocytes were then replated onto 100 mm PORN coated plates at a cell density of 10^6 cells per plate (10 ml growth medium). […]
# as §5
# [5] = tested on: PC12 cells; test: Neuritogenesis in PC12 cells; type: cell-based, rat; details: NGF 40 ng/ml
# Protocol: Much of the work performed in the characterization of the compounds of the present invention involved the use of PC12 cells. These cells are derived from a rat pheochromocytoma and when grown in the presence of NGF, extend neurites, cease cell division and assume many characteristics of sympathetic neurons. When cultured in the absence of nerve growth factor (NGF), few PC12 cells have neurites greater than one cell diameter. Addition of saturating concentrations of NGF for 48 hours stimulates neurite outgrowth in about 20-35% of the cells. Because they constitute a homogeneous population of neuronal-like cells, without contaminating astroglia type cells, it is possible to study the direct effects of the purine based compounds on neurite outgrowth in these cells.
# Cells cultured in RPMI 1640 with 1.5% horse serum and 1.5% fetal bovine serum were re-plated onto poly-ornithine coated 24-well culture plates (2.5×10^4 cells per well). AIT-082 and NGF were added to the various cultures immediately upon plating. After 48 hours, medium was removed and the cells irnmediately fixed in 10% formalin and PBS for 10 minutes. Cells and neurites were counted within 2 days of fixation.
# A neurite was defined as a process extending from the cell at least 1 cell body diameter in length and displaying a growth cone at its tip. For each treatment, 2 representative microscope fields were counted from each of 6 sister cultures receiving identical treatments. The total number of cells counted per well (approximately 100 cells) and the total number of cells containing neurites in each well were used to determine fraction of neurite-bearing cells. The mean values (±SEM) were then determined for each of the treatments. To facilitate comparison neurite outgrowth was expressed relative to the proportion of cells bearing neurites in the presence of NGF alone (NGF=100%). The effects of compounds with and without NGF were compared by analysis of variance (ANOVA) followed by Tukey's test for significance.
# The results are shown in FIG. 3 where the curve represents different levels of AIT-082 plus saturating concentrations (40 ng/ml) NGF. The center horizontal line represents control values for cells cultured in the presence of 40 ng/ml NGF alone. Upper and lower horizontal lines are indicative of confidence limits of NGF alone as determined using standard statistical methods.
# [6] = tested on: BDNF mRNA; test: Northern blot of neurotrophin mRNA from astrocytes: BDNF; type: cell-based, NIH Swiss mice; parameters: key: The conditions which produced a detectable amount of each of the neurotrophin mRNAs are indicated by a “+”; a “++” indicating that at least twice the detectable amount was present; Those blots which were negative are indicated by a “−”; details: NGF 40 ng/ml, 24 hours
# Protocol: as §1, §2, §3, §6, §5
substance,measurement,setting,value
NGF: nerve growth factor,NGF mRNA,[1],−
same,FGF-2 mRNA,[2],−
same,rescue of ChAT-positive cells following the FFT lesion,[3],robust rescue effect
same,NT-3 mRNA,[4],−
same,"Proportion of cells bearing neurites, NGF alone",[5]; Methemoglobin 1 μM,0.2 ± 0.02
same,"Proportion of cells bearing neurites, NGF alone",[5]; Methylene Blue 5 μM,0.24 ± 0.03
same,"Proportion of cells bearing neurites, NGF alone",[5]; Zn Protoporphyrin IX 1 μM,0.22 ± 0.03
same,"Proportion of cells bearing neurites, NGF alone","[5]; no inhibitor, 48 hours",0.2 ± 0.02
same,BDNF mRNA,[6],+

# Reference: patent publication US6338963B1, “Use of carbon monoxide dependent guanylyl cyclase modifiers to stimulate neuritogenesis” (NeoTherapeutics, Inc., priority 1994, dated 2002)
